Read-outs that look alike come from different tables or passages of the source.
Target: T1, human cloned 5-HT6 receptors (Homo sapiens, UniProt P50406)
T1 construct: expressed in transfected cells; host or cells: HeLa cells
Type: binding
Conditions: for inhibition at 0.01 µM: test compound dose 10 nM

[1] = test compound dose 1000 nM, displacement of [3H]-LSD
[2] = test compound dose 100 nM, displacement of [3H]-LSD, read-out: % Inhibition

T1 sequence (P50406 whole entry): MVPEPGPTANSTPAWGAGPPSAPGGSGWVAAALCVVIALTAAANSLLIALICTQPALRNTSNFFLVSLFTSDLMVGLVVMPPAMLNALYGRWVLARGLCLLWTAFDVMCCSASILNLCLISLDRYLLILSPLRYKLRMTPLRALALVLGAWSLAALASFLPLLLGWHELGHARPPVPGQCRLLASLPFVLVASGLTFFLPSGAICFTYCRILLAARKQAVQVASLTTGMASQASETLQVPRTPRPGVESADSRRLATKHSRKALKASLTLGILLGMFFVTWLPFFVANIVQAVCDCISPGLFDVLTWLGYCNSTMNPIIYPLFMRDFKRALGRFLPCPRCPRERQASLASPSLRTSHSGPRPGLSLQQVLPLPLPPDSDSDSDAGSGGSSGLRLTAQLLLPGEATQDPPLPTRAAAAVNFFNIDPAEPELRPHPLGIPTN

`Fc1ccc2[nH]c3c(c2c1)C(=NNC1=NCCN1)CCC3` [Example 157, 6-fluoro-1,2,3,9-tetrahydro-4H-carbazol-4-one 4,5-dihydro-1H-imidazol-2-ylhydrazone] was tested, and the inhibition at 1 µM [1] was 96.3%.

Compound `CN(N=C1CCCc2[nH]c3ccc(F)cc3c21)C1=NCCN1` [Example 158, 6-fluoro-1,2,3,9-tetrahydro-4H-carbazol-4-one 4,5-dihydro-1H-imidazol-2-yl(methyl)hydrazone] has an inhibition at 1 µM [1] of 68.7%.

Compound `N=C(N)NN=C1CCCc2[nH]c3ccc(Br)cc3c21` [Example 159, 2-(6-bromo-1,2,3,9-tetrahydro-4H-carbazol-4-ylidene)hydrazinecarboximidamide] has an inhibition at 0.01 µM (displacement of [3H]-LSD) of 61.1%.

`CN(N=C1CCCc2[nH]c3ccc(Br)cc3c21)C1=NCCN1` [Example 160, 6-bromo-1,2,3,9-tetrahydro-4H-carbazol-4-one 4,5-dihydro-1H-imidazol-2-yl(methyl)hydrazone] gave an inhibition at 1 µM [1] of 76%.

Work on `N=C(N)NN=C1CCCc2[nH]c3ccccc3c21` [Example 161, 2-(1,2,3,9-tetrahydro-4H-carbazol-4-ylidene)hydrazinecarboximidamide] yielded an inhibition at 0.01 µM (displacement of [3H]-LSD) of 39.5%.

For `COc1ccc2[nH]c3c(c2c1)C(=NNC(=N)N)CCC3` [Example 162, N′-(6-methoxy-1,2,3,9-tetrahydro-4H-carbazol-4-ylidene)carbonohydrazonic diamide], the Ki ([3H]-LSD 3.0 nM, Hela cell membranes, read-out: 5-HT6 Binding Ki) was 4.7 nM and the “% Inhibition” value [1] was 98%.

`Cc1ccc2[nH]c3c(c2c1)C(=NNC(=N)N)CC(C)(C)C3` [Example 163, 2-(2,2,6-trimethyl-1,2,3,9-tetrahydro-4H-carbazol-4-ylidene)hydrazinecarboximidamide] showed an inhibition at 0.1 µM [2] of 38.5%.

For `Cc1ccc2[nH]c3c(c2c1)C(=NNC(=N)N)CC(c1ccccc1)C3` (centres unmarked) [Example 164, 2-(6-methyl-2-phenyl-1,2,3,9-tetrahydro-4H-carbazol-4-ylidene)hydrazinecarboximidamide], the inhibition at 0.1 µM [2] was 27.6%.

For `Cc1ccc2[nH]c3c(c2c1)C(=NNC(=N)N)CCC3` [Example 165, 2-(6-methyl-1,2,3,9-tetrahydro-4H-carbazol-4-ylidene)hydrazinecarboximidamide], the inhibition at 0.1 µM [2] was 57.2%.

`CC(C)c1ccc2[nH]c3c(c2c1)C(=NNC(=N)N)CC(C)(C)C3` [Example 166, 2-(6-isopropyl-2,2-dimethyl-1,2,3,9-tetrahydro-4H-carbazol-4-ylidene)hydrazinecarboximidamide] showed an inhibition at 0.1 µM [2] of 27.3%.

Work on `CC(C)c1ccc2[nH]c3c(c2c1)C(=NNC(=N)N)CC(c1ccccc1)C3` (centres unmarked) [Example 167, 2-(6-isopropyl-2-phenyl-1,2,3,9-tetrahydro-4H-carbazol-4ylidene)hydrazinecarboximidamide] yielded an inhibition at 0.1 µM [2] of 35.2%.

`CC1(C)CC(=NNC(=N)N)c2c([nH]c3ccc(OC(F)(F)F)cc23)C1` [Example 168, 2-[2,2-dimethyl-6-(trifluoromethoxy)-1,2,3,9-tetrahydro-4H-carbazol-4-ylidene]hydrazinecarboximidamide] gave an inhibition at 0.1 µM [2] of 26%.

Work on `CC1(C)CC(=NNC(=N)N)c2c([nH]c3ccc(Br)cc23)C1` [Example 169, 2-(6-bromo-2,2-dimethyl-1,2,3,9-tetrahydro-4H-carbazol-4-ylidene)hydrazinecarboximidamide] yielded an inhibition at 0.1 µM [2] of 33.9%.

Compound `N=C(N)NN=C1CC(c2ccccc2)Cc2[nH]c3ccc(Br)cc3c21` (centres unmarked) [Example 170, 2-(6-bromo-2-phenyl-1,2,3,9-tetrahydro-4H-carbazol-4-ylidene)hydrazinecarboximidamide] has an inhibition at 0.1 µM [2] of 24.4%.

`CC1(C)CC(=NNC(=N)N)c2c([nH]c3ccc(Cl)cc23)C1` [Example 171, 2-(6-chloro-2,2-dimethyl-1,2,3,9-tetrahydro-4H-carbazol-4-ylidene)hydrazinecarboximidamide] showed an inhibition at 0.1 µM [2] of 30.7%.

Work on `N=C(N)NN=C1CC(c2ccccc2)Cc2[nH]c3ccc(Cl)cc3c21` (centres unmarked) [Example 172, 2-(6-chloro-2-phenyl-1,2,3,9-tetrahydro-4H-carbazol-4-ylidene)hydrazinecarboximidamide] yielded an inhibition at 0.1 µM [2] of 24.6%.

`CC1(C)CC(=NNC(=N)N)c2c([nH]c3ccc(F)cc23)C1` [Example 173, 2-(6-fluoro-2,2-dimethyl-1,2,3,9-tetrahydro-4H-carbazol-4-ylidene)hydrazinecarboximidamide] gave an inhibition at 0.1 µM [2] of 26.7%.

In the case of `Cc1ccc2[nH]c3c(c2c1)C(=NN(C)C1=NCCN1)CC(C)(C)C3` [Example 174, 2,2,6-trimethyl-1,2,3,9-tetrahydro-4H-carbazol-4-one 4,5-dihydro-1H-imidazol-2-yl(methyl)-hydrazone], the inhibition at 0.1 µM [2] is reported as 25.5%.

`Cc1ccc2[nH]c3c(c2c1)C(=NN(C)C1=NCCN1)CC(c1ccccc1)C3` (centres unmarked) [Example 175, 6-methyl-2-phenyl-1,2,3,9-tetrahydro-4H-carbazol-4-one 4,5-dihydro-1H-imidazol-2-yl(methyl)-hydrazone] was tested, and the inhibition at 0.1 µM [2] was 18.6%.

`Cc1ccc2[nH]c3c(c2c1)C(=NN(C)C1=NCCN1)CCC3` [Example 176, 6-methyl-1,2,3,9-tetrahydro-4H-carbazol-4-one 4,5-dihydro-1H-imidazol-2-yl(methyl)hydrazone] gave an inhibition at 0.1 µM [2] of 24.2%.

In the case of `CC(C)c1ccc2[nH]c3c(c2c1)C(=NN(C)C1=NCCN1)CC(C)(C)C3` [Example 177, 6-isopropyl-2,2-dimethyl-1,2,3,9-tetrahydro-4H-carbazol-4-one 4,5-dihydro-1H-imidazol-2-yl(methyl)hydrazone], the inhibition at 0.1 µM [2] is reported as 22.9%.

With `CC(C)c1ccc2[nH]c3c(c2c1)C(=NN(C)C1=NCCN1)CC(c1ccccc1)C3` (centres unmarked) [Example 178, 6-isopropyl-2-phenyl-1,2,3,9-tetrahydro-4H-carbazol-4-one 4,5-dihydro-1H-imidazol-2-yl-(methyl)hydrazone] the inhibition at 0.1 µM [2] was 25.6%.

`CC(C)c1ccc2[nH]c3c(c2c1)C(=NN(C)C1=NCCN1)CCC3` [Example 179, 6-isopropyl-1,2,3,9-tetrahydro-4H-carbazol-4-one 4,5-dihydro-1H-imidazol-2-yl(methyl)-hydrazone] gave an inhibition at 0.1 µM [2] of 5.6%.

Compound `CN(N=C1CC(c2ccccc2)Cc2[nH]c3ccc(F)cc3c21)C1=NCCN1` (centres unmarked) [Example 180, 6-fluoro-2-phenyl-1,2,3,9-tetrahydro-4H-carbazol-4-one 4,5-dihydro-1H-imidazol-2-yl(methyl)-hydrazone] has an inhibition at 0.1 µM [2] of 11.5%.

For `CCCCCNC(=N)NN=C1CCCc2[nH]c3ccc(Cl)cc3c21` [Example 181, 2-(6-chloro-1,2,3,9-tetrahydro-4H-carbazol-4-ylidene)-N-pentylhydrazinecarboximidamide], the inhibition at 0.1 µM [2] was 47%.

With `N=C(NN=C1CCCc2[nH]c3ccc(Cl)cc3c21)NC1CCCC1` [Example 183, 2-(6-chloro-1,2,3,9-tetrahydro-4H-carbazol-4-ylidene)-N-cyclopentylhydrazinecarboximidamide] the inhibition at 0.1 µM [2] was 55.3%.

Work on `CN(N=C1CCc2[nH]c3ccc(Cl)cc3c21)C1=NCCN1` [Example 184, 7-Chloro-3,4-dihydrocyclopenta[b]indol-1(2H)-one 4,5-dihydro-1H-imidazol-2-yl-(methyl)hydrazone] yielded an inhibition at 0.1 µM of 19.8%.

“N-benzyl-2-(6-chloro-1,2,3,9-tetrahydro-4H-carbazol-4-ylidene)hydrazinecarboximidamide [Example 182]” was tested, and the “% Inhibition” value (test compound dose 100 nM, displacement of [3H]-LSD) was 47.3%.
